Measured values: patent US6790848B2, “4-piperazinylindole derivatives with 5-HT6 receptor affinity” (Syntex (U.S.A.) LLC, priority 2001, dated 2004)
Where a name gives a salt, the structure may show the parent alone.

| melting point | Compound |
| --- | --- |
| 234 to 235 °C (dec.) | CS(=O)(=O)c1ccc(S(=O)(=O)n2ccc3c(N4CCNCC4)cccc32)cc1 (as salt: trifluoroacetate) [1-(4-methanesulfonyl-benzenesulfonyl)-4-piperazin-1-yl-1H-indole] |
| 203 to 204 °C | O=S(=O)(c1ccc(F)cc1)n1ccc2c(N3CCNCC3)cccc21 (as salt: hydrochloride) [1-(4-fluoro-benzenesulfonyl)-4-piperazin-1-yl-1H-indole] |
| 173 to 174 °C | CCCS(=O)(=O)c1cccc(S(=O)(=O)n2ccc3c(N4CCNCC4)cccc32)c1 (as salt: trifluoroacetate) [4-piperazin-1-yl-1-[3-(propane-1-sulfonyl)-benzenesulfonyl]-1H-indole] |
| 172 to 173 °C (dec.) | CS(=O)(=O)c1ccc(F)c(S(=O)(=O)n2ccc3c(N4CCNCC4)cccc32)c1 (as salt: trifluoroacetate) [1-(2-fluoro-5-methanesulfonyl-benzenesulfonyl)-4-piperazin-1-yl-1H-indole] |
| 245 to 246 °C (dec.) | COc1ccc(OC)c(S(=O)(=O)n2ccc3c(N4CCNCC4)cccc32)c1 (as salt: trifluoroacetate) [1-(2,5-dimethoxy-benzenesulfonyl)-4-piperazin-1-yl-1H-indole] |
| 223 to 224 °C | O=S(=O)(c1c(F)cccc1F)n1ccc2c(N3CCNCC3)cccc21 (as salt: trifluoroacetate) |
| 256 to 257 °C | O=S(=O)(c1cccc(C(F)(F)F)c1)n1ccc2c(N3CCNCC3)cccc21 (as salt: hydrochloride) [4-piperazin-1-yl-1-(3-trifluoromethyl-benzenesulfonyl)-1H-indole] |
| 220 to 222 °C | CC(C)CS(=O)(=O)c1cccc(S(=O)(=O)n2ccc3c(N4CCNCC4)cccc32)c1 (as salt: trifluoroacetate) [1-[3-(2-methyl-propane-1-sulfonyl)-benzenesulfonyl]-4-piperazin-1-yl-1H-indole] |

| Compound | melting point |
| --- | --- |
| N#Cc1cccc(S(=O)(=O)n2ccc3c(N4CCNCC4)cccc32)c1 (as salt: trifluoroacetate) [3-(4-piperazin-1-yl-indole-1-sulfonyl)-benzonitrile] | 238 °C (dec.) |
| COc1cccc(S(=O)(=O)n2ccc3c(N4CCNCC4)cccc32)c1 (as salt: trifluoroacetate) [1-(3-methoxy-benzenesulfonyl)-4-piperazin-1-yl-1H-indole] | 221 °C (dec.) |
| O=S(=O)(c1ccccc1)n1cc(Br)c2c(N3CCNCC3)cccc21 (as salt: hydrochloride) [1-benzenesulfonyl-3-bromo-4-piperazin-1-yl-1H-indole] | 304 to 305 °C |
| O=S(=O)(c1cc(Cl)cc(Cl)c1)n1ccc2c(N3CCNCC3)cccc21 (as salt: hydrochloride) [1-(3,5-Dichloro-benzenesulfonyl)-4-piperazin-1-yl-1H-indole] | 156 to 157 °C |
| O=S(=O)(c1cccc(F)c1)n1ccc2c(N3CCNCC3)cccc21 (as salt: trifluoroacetate) [1-(3-fluoro-benzenesulfonyl)-4-piperazin-1-yl-1H-indole] | 227 to 228 °C (dec.) |
